Laboratory results as given in patent US10786505B2, “Administration of NEDD8-activating enzyme inhibitor and chemotherapeutic agents” (Millennium Pharmaceuticals, Inc., priority 2013, dated 2020).

Assays:
Test in all cases: In vitro cell viability combination assay (CellTiter-Glo)
[1] = tested on: A549; conditions: 72 hr
Protocol: (§1) General Method: Cells are grown in their respective growth media, supplemented with 10% fetal bovine serum unless otherwise noted. […] A portion of each plate is used for positive controls (no agent is added), while another portion of each plate is used for negative controls (no cells are added). Viability is assessed with CellTiter-Glo® Cell Viability reagent used according to manufacturer's instructions (Promega). Luminescence is measured using a LEADseeker imaging system (GE Healthcare).
(§2) The viability data is normalized separately for each plate by scaling the data so that the median of the negative controls is 0 and the median of the positive controls is 100. More formally,
(§3) [formula] where Vi is the normalized viability of the i^th well, Ui is the raw viability measurement, median (U) is the median of the negative controls, and median (U+) is the median of the positive controls. After normalization, the controls are discarded.
(§4) where E1, E2, E3, E4, I1, I2, I3, S1, S2, S3, and S4 are parameters, CA and CB are the respective concentrations of agents A and B, and V is the normalized viability measurement. It is assumed that the error values are independent and identically distributed normal random variables.
(§5) The Combination Index is computed based on an isobologram, which is a slice of the dose response surface with constant viability. For the present analysis, the 50% isobologram, which is the dose contour that has 50% viability, is used. […] Since the choice of (DA, DB) can be arbitrary, the constraint DA/DB=EC50A/EC50B is used.
(§6) In such cases, Nonlinear Blending can be used as an alternative measure of synergy or additivity. Nonlinear Blending is found by considering a slice of the dose response surface that intersects both concentration axes and runs parallel to the viability axis. Let VA and VB be the viability where the slice intersects the drug A and B axes, respectively. Let Vmax and Vmin be the maximum and minimum viabilities along the slice. Let NLBS=min(VA,VB)−Vmin NLBA=Vmax−max(VA,VB) Define the Nonlinear Blending value to be NLBS if NLBS>NLBA and −NLBA otherwise.
(§7) After completing the analysis of individual plates, the results are combined across the replicates. For a given measure and a set of replicates, the overall mean and standard error are computed using weighted averaging. A null mean, which corresponded to an additive effect, is then compared with the overall mean. The null mean is 1 for the Combination Index and 0 for Nonlinear Blending. Next, a two sized Z-test is performed based on the estimated mean and standard error. This produces a p-value for each measure and each cell line.
(§8) After computing the mean, standard error, and p-value for each set of replicates, these values require interpretation. Thus, a standard procedure is used to produce a classification (synergy, additivity, subadditivity, antagonism, or inconclusive) in each case. If the Combination Index exists for more than half of the replicates, then these measures are used to make the classification.
(§9) Consider the case where the Combination Index is used to make the classification. If the p-value is greater than 0.05, the estimate for the Combination Index is not statistically different from 1. However, if the standard error is also very large, then the estimate is too uncertain to be informative. […] Otherwise, the classification is “Additivity”. When the p-value is less than 0.05, the estimate for the Combination Index is statistically different from 1. However, if the mean is still close to 1, then the difference is not of practical significance. Thus, the result is classified based on the mean. A mean in the range (0.8, 1.2) is considered close enough to 1 to be classified as Additivity. A mean in the range (0, 0.8) is considered low enough to be classified as Synergy. […] The threshold value of 2 can be derived from the definition of the Combination Index.

[2] = tested on: NCI-H510; conditions: agent combined with MLN4924, vehicle DMSO, 96 hr
Protocol: as §1, §2, §3, §4, §5, §6, §7, §8, §9

[3] = tested on: NCI-H69; format: cell-based; conditions: agent combined with MLN4924, vehicle DMSO, 96 hr
Excerpt: After normalization, the controls are discarded.
Otherwise, the classification is “Additivity”.

[4] = tested on: NCI-H526; conditions: agent combined with MLN4924, vehicle DMSO, 96 hr
Protocol: as §1, §2, §3, §4, §5, §6, §7, §8, §9

[5] = tested on: NCI-H82; conditions: agent combined with MLN4924, vehicle DMSO, 96 hr
Protocol: as §1, §2, §3, §4, §5, §6, §7, §8, §9

[6] = tested on: HCT116; conditions: 48 hr
Protocol: as §1, §2, §3, §4, §5, §6, §7, §8, §9

[7] = tested on: NCI-H209; conditions: agent combined with MLN4924, vehicle DMSO, 96 hr
Protocol: as §1, §2, §3, §4, §5, §6, §7, §8, §9

[8] = agent combined with MLN4924, vehicle PBS
[9] = agent combined with MLN4924, vehicle DMSO

Row | Compound | Nonlinear Blending [1, 8] | Nonlinear Blending [2] | Nonlinear Blending [3] | Nonlinear Blending [4] | Nonlinear Blending [5] | Nonlinear Blending [6, 8] | Nonlinear Blending [7] | Nonlinear Blending [1, 9] | Nonlinear Blending [6, 9]
1 | O=C1[O][Pt]2([NH][C@@H]3CCCC[C@H]3[NH]2)[O]C1=O [oxaliplatin] | 2 ± 2 | 2 ± 3 | 11 ± 3 | −8 ± 4 | 6 ± 2 | 10 ± 5 | −5 ± 2 |  | 
2 | CC(=O)O[C@H]1C(=O)[C@@]2(C)[C@H]([C@H](OC(=O)c3ccccc3)[C@]3(O)C[C@H](OC(=O)[C@H](O)[C@@H](NC(=O)c4ccccc4)c4ccccc4)C(C)=C1C3(C)C)[C@]1(OC(C)=O)CO[C@@H]1C[C@@H]2O [paclitaxel] |  | −22 ± 4 | −16 ± 4 | −26 ± 3 | −16 ± 2 |  | −8 ± 3 | −6 ± 0.9 | −14 ± 2
